In patent publication US20250296955A1, “PIN1 TARGETING COMPOUNDS AND DEGRADERS AND METHODS THEREOF” (The Regents of the University of California, priority 2024, published 2025):
Where a SMILES comes first, the peptide text is derived from it. [ ]: non-standard residue; d: D form. The star is where a group is joined. Trp(5-OH) = N[C@@H](Cc1c[nH]c2ccc(O)cc12)C(=O)O; Trp(5-F) = N[C@@H](Cc1c[nH]c2ccc(F)cc12)C(=O)O; Phe(4-F) = N[C@@H](Cc1ccc(F)cc1)C(=O)O; mTyr = N[C@@H](Cc1cccc(O)c1)C(=O)O; Pip = O=C(O)[C@@H]1CCCCN1; ClAc = O=C(CCl)*

Assays:
Pin1 [1] = target: T1, Pin1 (Homo sapiens, UniProt Q13526); assay: DELFIA displacement assay (displacement of biotinylated D-peptide from 6His-Pin1); type: binding; set-up: human Pin1 (residues 1-163); made in house; host or cells: E. coli BL21 (DE3) gold pLysS
From the text: (§1) Important to the success of structure activity relations studies, robust biochemical, biophysical, and cell-based assays were implemented that enabled rapid and iterative evaluations of test Pin1 targeting agents. First, the DELFIA (Dissociation-enhanced lanthanide fluorescent immunoassay) assay platform was used to derive a robust heterogeneous assay to monitor the ability of test agents to displace the binding between Pin1 and the D-Peptide (Table 1), which was obtained in a biotinylated form (FIG. 10). […] Second, for an orthogonal biophysical assay denaturation thermal shift measurements were used. Pin1 was incubated with vehicle control (buffer with 1% DMSO), or test agents at protein: ligand ratio of 1:2 (20 μM protein-40 μM compound) for 10 min at 10° C. in the presence of the fluorescent dye SYPRO Orange. The samples were gradually exposed to increasing temperature (linear gradient from 10° C. to 95° C.), causing the protein to unfold. This unfolding allowed the fluorescent dye to bind to the protein's exposed hydrophobic residues, resulting in an increase in fluorescence. The thermal shift assay measures the protein's melting temperature (Tm), which is the temperature at which the protein denatures by 50%. Ligands can affect a protein target to thermal denaturation, which could manifest in a positive or negative shift in the protein denaturation temperature (ΔTm) (Bai N, Roder H, Dickson A, & Karanicolas J (2019) Scientific Reports 9; and Kranz J K & Schalk-Hihi C (2011) Fragment-Based Drug Design: Tools, Practical Approaches, and Examples 493:277-298). Using these two assays, a series of commercially available Pin1 inhibitors were profiled (Table 1). The non-covalent agent D-peptide resulted only moderately active, with an IC50 value of ˜3 μM that closely resembled the dissociation constant for this agent determined via isothermal titration calorimetry, and the ˜ 3 μM IC50 value as reported by a fluorescence polarization assay (Pinch B J, et al. (2020) Nat Chem Biol 16(9):979-987). […] (Table 1) was observed.
For the reported covalent agents such as sulfopin (Dubiella C, et al. (2021) Nat Chem Biol 17(9):954-963), BJP-07-017-3 (Pinch B J, et al. (2020) Nat Chem Biol 16(9):979-987), or KPT-6566 (Campaner E, et al. (2017) Nat Commun 8:15772), a 6-h pre-incubation period was included in the DELFIA assay to allow the covalent reaction to take place. For those agents, IC50 values that fell in the low nanomolar range were observed, consistent with what was reported previously for those compounds. […] To make those determinations in a broader panel of cancer cell lines three pancreatic cancer cell lines, BxPC3, MIA-PaCa-2, and PANC-1, the breast cancer cell line MDA-MB-231, the prostate cancer cell line PC3, and the non-small cell lung cancer cell line A549 were chosen. Each cell line represents various states of KRAS activating mutations (for example BxPC3 is wt-KRAS, while MIAPaCa2 carries the KRAS(G12C) mutation, and the PANC-1 the KRAS(G12D) (Miquel M, Zhang S, & Pilarsky C (2021) Front Cell Dev Biol 9:748631), A549 is KRAS(G12S) (Wang H, et al. (2019) EBioMedicine 49:106-117), MDA-MB-231 is KRAS(G13D) (Kim R K, et al. (2015) Exp Mol Med 47(1):e137), PC3 is wt-KRAS (Bouali S, et al. (2009) Oncol Rep 21(3):731-735). Pin1 protein levels in these cell lines were established using a specific Pin1 antibody in western blot analyses (FIG. 1A). The data confirmed that all these selected human cancer cell lines expressed a significant level of Pin1 (FIG. 1A).
Each well of 96-well streptavidin-coated plates (PerkinElmer) was incubated with 100 μL of 200 nM biotinylated D-peptide for 2 h and washed 3 times with a wash solution (PerkinElmer). Subsequently, a mixture containing Pin1, and a serial dilution of the test compounds were pre-incubated for 6 h. Eu-N1-labeled anti-6x-His antibody (PerkinElmer, 1:2000) was then added to this mixture and further incubated in the biotinylated D-peptide-bound plates for another 2 h. […]

Pin1 [2] = target: T1, Pin1; assay: Denaturation thermal shift assay (SYPRO Orange); type: binding; set-up: human Pin1 (residues 1-163); made in house; host or cells: E. coli BL21 (DE3) gold pLysS
From the text: as §1
Thermal shift assays for Pin1 alone and in the presence of the inhibitors were obtained with a BioRad CFX Connect Real-Time PCR Detection System. Each data point was collected in quadruplicate. Each sample was prepared using buffer 50 mM Phosphate pH 7.5, 150 mM NaCl, 1% DMSO. Protein: ligand ratio used was 1:2 (20 μM protein-40 μM compound), and SYPRO Orange was used. Incubation of the Pin1 protein with the compounds was performed at 10° C. for 10 min. Samples were then heated from 10 to 95° C. with heating increments of 0.05° C., over 30 min. Fluorescence intensity was measured within the excitation/emission ranges 470-505/540-700 nm.

[3] = Table 3, single transition, ± SE of four replicates
[4] = Table 4, single transition, ± SE of four replicates
[5] = Table 3, percentage in brackets after first ΔTm
[6] = Table 3, percentage in brackets after second ΔTm
[7] = Table 3, two peaks observed, likely incomplete complex formation

T1 sequence (Q13526 whole entry, the tested form may be a part): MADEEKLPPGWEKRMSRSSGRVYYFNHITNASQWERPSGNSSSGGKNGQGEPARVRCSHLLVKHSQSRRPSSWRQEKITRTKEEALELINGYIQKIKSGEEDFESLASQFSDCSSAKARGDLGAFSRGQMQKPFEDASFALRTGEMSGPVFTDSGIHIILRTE

SMILES: NC(=O)[C@H](Cc1c[nH]c2ccccc12)NC(=O)[C@@H]1CCCCN1C(=O)[C@H](Cc1cccc(O)c1)NC(=O)CCl [158D9] (ClAc-[mTyr]-[Pip]-Trp-NH2)
- IC50 (Pin1 [1]; Table 3, ± SD from duplicates): 34 ± 2 nM
- ΔTm (° C.) (Pin1 [2]; [3]): −8.28 ± 0.04 °C

SMILES: NC(=O)[C@H](Cc1c[nH]c2ccccc12)NC(=O)[C@@H]1CCCCN1C(=O)[C@H](Cc1c[nH]c2ccc(O)cc12)NC(=O)CCl [158H3] (ClAc-[Trp(5-OH)]-[Pip]-Trp-NH2)
- IC50 (Pin1 [1]; Table 4, ± SD from duplicates): 56 ± 5 nM
- ΔTm (° C.) (Pin1 [2]; [4]): −6.56 ± 0.04 °C

SMILES: NC(=O)[C@H](Cc1c[nH]c2ccccc12)NC(=O)[C@@H]1CCCCN1C(=O)[C@H](Cc1ccccc1)NC(=O)CCl [158D10] (HELM PEPTIDE1{[O=C(CCl)[*:2]].F.[O=C([C@@H]1CCCCN1[*:1])[*:2]].W.[am]}$$$$V2.0)
- IC50 (Pin1 [1]; Table 2, ± SD from duplicates): 146 ± 19 nM
- ΔTm (° C.) (Pin1 [2]; Table 2, ± SE of four replicates): −10.40 ± 0.04 °C

SMILES: O=C(CCl)N[C@@H](Cc1ccccc1)C(=O)N1CCCC[C@H]1C(=O)NCCc1c[nH]c2ccc(F)cc12 [158G7]
- IC50 (Pin1 [1]; Table 3, ± SD from duplicates): 1040 ± 316 nM
- share of first thermal shift peak (Pin1 [2]; [5]): 50%
- share of second thermal shift peak (Pin1 [2]; [6]): 50%
- ΔTm (° C.), first of two peaks (Pin1 [2]; [7]): −0.45 ± 0.15 °C
- ΔTm (° C.), second printed of two peaks (Pin1 [2]; [7]): −14.28 ± 0.28 °C

SMILES: NC(=O)[C@H](Cc1c[nH]c2ccc(O)cc12)NC(=O)[C@@H]1CCCCN1C(=O)[C@H](Cc1ccccc1)NC(=O)CCl [158F9] (ClAc-Phe-[Pip]-[Trp(5-OH)]-NH2)
- IC50 (Pin1 [1]; Table 3, ± SD from duplicates): 135 ± 1 nM
- ΔTm (° C.) (Pin1 [2]; [3]): −9.99 ± 0.00 °C

SMILES: NC(=O)[C@H](Cc1c[nH]c2ccccc12)NC(=O)[C@@H]1C[C@H]2CCCC[C@@H]2N1C(=O)[C@H](Cc1c[nH]c2ccccc12)NC(=O)CCl [164A1]
- IC50 (Pin1 [1]; Table 5): 1830 ± 394 nM
- share of first denaturation transition (Pin1 [2]; Table 4, percentage in brackets after first ΔTm): 80%
- share of second denaturation transition (Pin1 [2]; Table 4, percentage in brackets after second ΔTm): 20%
- ΔTm (° C.), first of two denaturation transitions (Pin1 [2]; Table 4, two transitions observed, likely incomplete complex formation): −0.38 ± 0.15 °C

SMILES: NC(=O)[C@H](Cc1c[nH]c2ccccc12)NC(=O)[C@@H]1CCCCN1C(=O)[C@H](Cc1ccc(F)cc1)NC(=O)CCl [158G11] (ClAc-[Phe(4-F)]-[Pip]-Trp-NH2)
- IC50 (Pin1 [1]; Table 3, ± SD from duplicates): 146 ± 12 nM
- ΔTm (° C.) (Pin1 [2]; [3]): −10.57 ± 0.11 °C

SMILES: NC(=O)[C@H](Cc1c[nH]c2ccccc12)NC(=O)[C@@H]1CCCCN1C(=O)[C@H](Cc1c[nH]c2ccc(F)cc12)NC(=O)CCl [158H8] (ClAc-[Trp(5-F)]-[Pip]-Trp-NH2)
- IC50 (Pin1 [1]; Table 4, ± SD from duplicates): 43.5 ± 0.8 nM
- ΔTm (° C.) (Pin1 [2]; [4]): −9.81 ± 0.16 °C

SMILES: O=C(CCl)N[C@@H](Cc1ccccc1)C(=O)N1CCCC[C@H]1C(=O)NCCc1c[nH]c2cc(Cl)cc(Cl)c12 [158G6]
- IC50 (Pin1 [1]; Table 3, ± SD from duplicates): 327 ± 18 nM
- share of first thermal shift peak (Pin1 [2]; [5]): 70%
- share of second thermal shift peak (Pin1 [2]; [6]): 30%
- ΔTm (° C.), first of two peaks (Pin1 [2]; [7]): +1.04 ± 0.08 °C
- ΔTm (° C.) (Pin1 [2]; Table 5, only one transition given): +1.04 ± 0.08 °C
